Entries after “also recorded” stand apart in the source; their conditions may differ. Where two headings read alike, the source gives them in different places. Positions of bridges follow the written chain, without caps; N, C: chain ends. Non-standard residues stand in square brackets, D forms with d. Residues, ends and D or L forms follow the SMILES beside them. *: point of attachment. Heptanoyl(6-Me) = CC(C)CCCCC(=O)*; X1 = CC[C@H](C)CCCCC(=O)*; Dab = NCC[C@H](N)C(=O)O
Columns and labels:
in vivo = conditions: male, Sprague Dawley, rat, iv, 15 mg/kg
Procedure: (§1) To 100 μl rat plasma sample, 5 μl of 500 μg/ml IS was added and followed by addition of 400 μl of 50:50 (v/v) methanol-TCA (10%). The samples were vortex-mixed for 1 min, rota-mixed for 10 min at 40 rpm and then centrifuged at 12,000 rpm for 10 min. Following centrifugation, 400 µl of the supernatant was collected and re-extracted with solid phase extraction (SPE) using SPE (Oasis HLB 1 cc, 30 mg) cartridges. First, the cartridges were conditioned with 500 μl of methanol then 500 μl of water. After that, 400 μl of the supernatant was transferred and then washed with 500 μl of water. The tubes were changed and then the samples were eluted with 150 μl of methanol: water: formic acid (80:19:1%, v/v/v) solution. The elution step was repeated twice, and then 250 μl of the solution was transferred to the low volume inserts and 20 μl of this solution was injected into the LC-MS system.
(§2) Male Sprague Dawley® (MSD) rats (21 weeks ± 3 days of age) with a body weight of 450–550 g [supplied by the Animal Resource Center (ARC), Health Sciences Center (HSC), Kuwait University] were used to estimate the pharmacokinetic profile of colistin. The animals (n = 8) were housed in 12 h/12 h light/dark cycle. […] All the animals were subjected to left jugular vein cannulation, IV drug administration, and subsequent blood sampling. All surgical procedures were carried out under strict aseptic conditions. In addition, all surgical instruments and materials were autoclaved, all solutions were sterile and the surgical procedure was performed with the aid of surgical microscope (Leica wild M690). Animal body temperatures were maintained around 37.6 °C (rectal) by placing the animals on an electronic heating pad throughout the surgical procedure as well as the post-surgical recovery period. About 350 µl of rat blood sample was collected from each animal. From this sample, 50 µl of blood sample was transferred to a capillary tube, sealed with the sealant clay at one end and centrifuged to calculate the Packed Cell Volume (PCV); i.e., Hematocrit. The remaining rat blood sample (300 µl) was centrifuged at 9000 X g for 10 min and aliquots of 100 µl of plasma sample was collected and stored at −70 °C pending analysis.
(§3) Colistin was quantified in the biological samples by the present LC-MS/MS method and then the pharmacokinetic parameters (t1/2, CL, Vd, AUC) were estimated by non-compartmental method employing Kinetica® software, version 5.1 (Thermo Fisher Scientific, Waltham, USA).

[1] = cited from earlier work
Source text: Following the validation of the present analytical method, the method was applied to estimate the pharmacokinetic profile of colistin in experimental rats. Choosing the animal species to perform the pharmacokinetic study was based on the similarity of colistin pharmacokinetic profile between animal species and humans. […] The species that has the closest pharmacokinetic profile to humans are rats[43]–[45]. […] This is because of a distribution phase that occurs before the decline in the colistin concentration. This finding is in agreement with previous reports[43],[44],[49]. In the present study, we observed that colistin concentration declined rapidly over 180–240 min which is consistent with earlier findings[45],[49]. […] In the present study, the Vd of colistin was 2.45 ± 1.30 L/kg in ...

[2] = Benchtop stability of colistin in rat plasma samples at room temperature; conditions: rat plasma, stored for 6 hours at room temperature (25 °C), LC-MS/MS
Procedure: (§4) Colistin sulfate was prepared by dissolving 5.5 mg of the powder in 5 ml water to make a stock solution of 1 mg/ml of colistin. PMB sulfate solution of 1 mg/ml was also prepared by dissolving 5.8 mg of PMB sulfate powder in 5 ml water. Both solutions were stored at −70 °C. Calibration standards and quality controls were prepared by spiking different amounts of colistin sulfate stock solution in plasma. Aliquots of colistin sulfate were further diluted to provide standard concentrations of 0.5, 1, 2, 5, 10, 15, and 20 μg/mL (equivalent to: 78, 156, 312, 780, 1560, 2340 and 3120 ng/ml of colistin A and 353, 706, 1412, 3350, 7060, 10590 and 14120 ng/ml of colistin B) whereas, the concentrations of 1.5, 3.5, 7.5 and 17.5 μg/mL (which contained 234, 546, 1170 and 2730 ng/ml of colistin A and 1059, 2471, 5295 and 12355 ng/ml of colistin B) were considered as quality controls. The calibration standards and quality controls were aliquoted (150 μL) into 0.5 ml Eppendorf tubes and stored at −70 °C pending analysis.
as §1
(§5) Various types of stability tests including freeze-thaw stability and long-term stability were assessed. The freeze-thaw stability test was performed by removing the four QC samples out of the storage temperature (−70 °C) and keeping them at room temperature (25 °C) until thawing and then aliquots of the samples were analyzed. After that, the samples were again returned back for freezing in the same storage conditions for 12 to 24 h. The freeze-thaw cycles were repeated five times and 4 replicates of the analytes were assayed. In addition, a long-term stability test was performed to ensure that the stability of the samples for a time that exceeds the interval between the first sample collection and the last sample analysis. Four aliquots of low, medium and high concentrations (QC) were kept for 20 days in the same temperature used to store samples regularly at the lab (−70 °C) then analyzed and compared to the nominal concentration of freshly prepared QC samples. Moreover, the stability in the autosampler (4 °C) was assessed by keeping the processed samples under this condition and assayed periodically at different times for up to 24 hours. In addition, benchtop stability test was performed by keeping the samples at room temperature (25 °C) for six hours and analyzing them during this time. The mean value results of stability tests were calculated and compared to the nominal concentrations.

[3] = cited from earlier work; remark: listed apart in the source
Procedure: However, colistin sulphate has been reported to be well absorbed after an oral administration in infants. […] The standards and quality control samples concentrations were selected based on the therapeutic range of colistin. The expected colistin serum levels according to the antimicrobial reference laboratory assay service are 5–15 mg/L and 2–4 mg/L for the peak and tough concentrations, respectively. […] Choosing the animal species to perform the pharmacokinetic study was based on the similarity of colistin pharmacokinetic profile between animal species and humans. […] The species that has the closest pharmacokinetic profile to humans are rats[43]–[45].

[4] = Long-term stability of colistin in rat plasma QC samples at −70 °C; conditions: rat plasma, 20 days, LC-MS/MS
Procedure: as §4, §1, §5

[5] = Pharmacokinetic study of colistin in rats after IV colistin sulfate, plasma LC-MS/MS, non-compartmental analysis; conditions: male, rat, 15 mg/kg, SD
Procedure: as §1, §2, §3

[6] = Autosampler stability of processed colistin rat plasma samples at 4 °C
Procedure: as §4, §1, §5

[7] = Freeze-thaw stability of colistin in rat plasma QC samples; conditions: five freeze-thaw cycles, −70 °C to room temperature
Procedure: as §4, §1, §5

In the case of `CC(C)CCCCC(=O)N[C@@H](CCN)C(=O)N[C@H](C(=O)N[C@@H](CCN)C(=O)N[C@H]1CCNC(=O)[C@H]([C@@H](C)O)NC(=O)[C@H](CCN)NC(=O)[C@H](CCN)NC(=O)[C@H](CC(C)C)NC(=O)[C@@H](CC(C)C)NC(=O)[C@H](CCN)NC1=O)[C@@H](C)O` [Colistin B, colistin B] ({Heptanoyl(6-Me)}-[Dab]T[Dab][Dab][Dab][dL]L[Dab][Dab]T; lactam 4-C), the level at 0.5 h (in vivo) is listed as 2.64 µg/mL, the “CL of the individual components” value ([1]; rat, in vivo) is listed as 0.183 ± 0.0372 L/h/kg and the “t1/2 of the major components” value ([1]; rat, in vivo) is listed as 1.52 ± 0.342 h.

For `CC[C@H](C)CCCCC(=O)N[C@@H](CCN)C(=O)N[C@H](C(=O)N[C@@H](CCN)C(=O)N[C@H]1CCNC(=O)[C@H]([C@@H](C)O)NC(=O)[C@H](CCN)NC(=O)[C@H](CCN)NC(=O)[C@H](CC(C)C)NC(=O)[C@@H](CC(C)C)NC(=O)[C@H](CCN)NC1=O)[C@@H](C)O` [colistin] (X1-[Dab]T[Dab][Dab][Dab][dL]L[Dab][Dab]T; lactam 4-C), the “benchtop (room temperature) stability (in words)” value [2] is listed as “in-stability”, the “benchtop (room temperature) stability (in words)” value ([2]; listed as Colistin) is listed as “not stable” and the minimum concentration ([3]; Markou and colleagues, steady state) is listed as 1.03 ± 0.44 mg/L. The “maximum steady state concentration” value ([3]; Markou and colleagues) was 2.93 ± 1.24 mg/L, the elimination half-life ([3]; colistin, eliminated extra-renally) was 3 h and the Vd ([3]; humans) was 12.4 L. For the same compound, the t1/2 ([3]; humans) was 3 h, the “long-term stability (in words)” value [4] was “stable; also recorded: acceptable” and the clearance ([5]; Sprague Dawley (MSD)) was 1.53 ± 0.636 L/h/kg. The AUC(0-inf) ([5]; Sprague Dawley) was 10.5 µg·h/mL, the Vd ([5]; Sprague Dawley) was 2.45 ± 1.29 L/kg and the half-life ([5]; Sprague Dawley) was 1.07 ± 0.605 h. The t1/2 ([1]; rats, another study) was 0.928 ± 0.322 h, the t1/2 ([1]; rats, dose ranging study, dose 15 mg/kg) was 0.54 ± 0.0833 h and the Vd ([1]; rats, earlier report) was 0.50 ± 0.06 L/kg. For the same compound, the “AUC0-∞” value ([1]; rats, mean ± S.D., other investigators, SD) was 2.6 ± 0.47 µg·h/mL, the “total body clearance (CL)” value ([1]; rats, reported by other investigators) was 0.702 ± 0.108 L/h/kg and the CLR ([1]; rats) was 0.312 ± 0.024 L/h/kg. The Vd ([1]; rats) was 0.496 ± 0.06 L/kg, the t1/2 ([1]; rats) was 1.24 ± 0.22 h and the “deviation of result at each level from nominal concentration in the autosampler” value ([6]; autosampler environment, 4 °C) was at most 15%. The “autosampler stability (in words)” value ([6]; processed samples, autosampler 4 °C, up to 24 hours, LC-MS/MS) was “stable; also recorded: acceptable”, the “deviation of resulting concentrations from nominal after freeze-thaw” value ([7]; plasma samples) was at most 15% and the “freeze-thaw stability (in words)” value ([7]; rat plasma, LC-MS/MS) was “stable; also recorded: acceptable”.

— paper PMC7234998, “Quantification of Colistin in Plasma by Liquid Chromatography-Tandem Mass Spectrometry: Application to a Pharmacokinetic Study” (Scientific Reports, 2020)
